# Assay results: article PMC9010685, “Sensor dimer disruption as a new mode of action to block the IRE1-mediated unfolded protein response” (Computational and Structural Biotechnology Journal, 2022)
# Where two headings read alike, the source gives them in different places.
# Target: T1, IRE1 (IRE1α, Inositol requiring enzyme 1α) (Homo sapiens, UniProt O75460)
# T1 construct: gene ERN1; recombinant IRE1 (aa 465–977, His & GST Tag); cytosolic domain
# Assay: in vitro fluorescence RNase assay, cleavage of XBP1 mini-probe (Cy5)
# Assay type: biochemical
# T1 sequence (O75460 465-977): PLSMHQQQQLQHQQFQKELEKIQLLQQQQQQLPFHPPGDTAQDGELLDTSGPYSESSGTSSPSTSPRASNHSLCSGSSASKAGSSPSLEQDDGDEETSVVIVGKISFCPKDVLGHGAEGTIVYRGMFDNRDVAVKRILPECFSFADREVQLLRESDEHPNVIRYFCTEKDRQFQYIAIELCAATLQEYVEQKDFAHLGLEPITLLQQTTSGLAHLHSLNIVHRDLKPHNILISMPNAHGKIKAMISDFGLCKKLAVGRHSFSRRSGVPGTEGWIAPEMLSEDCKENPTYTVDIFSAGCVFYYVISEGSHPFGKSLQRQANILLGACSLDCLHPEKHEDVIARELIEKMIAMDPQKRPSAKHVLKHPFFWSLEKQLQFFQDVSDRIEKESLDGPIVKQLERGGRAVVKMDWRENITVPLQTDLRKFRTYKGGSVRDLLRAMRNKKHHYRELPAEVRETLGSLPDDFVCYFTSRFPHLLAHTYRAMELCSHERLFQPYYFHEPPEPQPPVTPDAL
IC50 (read-out: IC50) [nM],Compound,IC50 [nM]
–,"C[C@@H]1O[C@@H](Oc2c(-c3ccc(O)c(O)c3)oc3cc(O)cc(O)c3c2=O)[C@H](O)[C@H](O)[C@H]1O [Qi, quercitrin]",230 ± 100
330 ± 300,NC[C@@H]1O[C@H](O[C@H]2[C@@H](O)[C@H](O[C@@H]3[C@@H](O)[C@H](N)C[C@H](N)[C@H]3O[C@H]3O[C@H](CN)[C@@H](O)[C@H](O)[C@H]3N)O[C@@H]2CO)[C@H](N)[C@@H](O)[C@@H]1O [neomycin],–
–,"Nc1nc2[nH]cc(CCc3ccc(C(=O)N[C@@H](CCC(=O)O)C(=O)O)cc3)c2c(=O)[nH]1 [PMT, pemetrexed]",260 ± 200
–,C[C@@H]1O[C@@H](OC[C@H]2O[C@@H](Oc3c(-c4ccc(O)c(O)c4)oc4cc(O)cc(O)c4c3=O)[C@H](O)[C@@H](O)[C@@H]2O)[C@H](O)[C@H](O)[C@H]1O [rutin],530 ± 300
